Legend:
[1] = biological target: T1, hMagT1 (human MagT1) (Homo sapiens, UniProt Q9H0U3); experiment: two-microelectrode voltage clamp, Xenopus oocytes, Mg2+-evoked current; format: cell-based; conditions: 10 μM compound, -125 mV, n = 5; activator; control current 0.59 ± 0.09 μA
T1 construct: full-length ORF, 335 residues, 38,036 Da; subcloned in pEYFP-N1, cRNA injected in Xenopus laevis oocytes; no fusion tag stated
T1 sequence (Q9H0U3 30-335): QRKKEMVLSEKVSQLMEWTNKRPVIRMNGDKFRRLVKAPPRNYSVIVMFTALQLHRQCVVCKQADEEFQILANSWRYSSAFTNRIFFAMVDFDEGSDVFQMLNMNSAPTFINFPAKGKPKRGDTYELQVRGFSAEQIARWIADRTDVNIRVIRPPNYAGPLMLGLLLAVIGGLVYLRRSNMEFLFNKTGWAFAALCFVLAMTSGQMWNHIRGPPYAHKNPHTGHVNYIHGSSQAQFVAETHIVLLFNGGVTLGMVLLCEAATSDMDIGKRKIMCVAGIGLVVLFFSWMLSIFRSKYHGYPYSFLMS

[2] = biological target: T1, hMagT1 (human MagT1); experiment: as above; format: cell-based; conditions: 10 μM compound, -125 mV, n = 7; inhibitor; control current 0.59 ± 0.09 μA

current at 10 μM [1] [μA]	residual current at 10 μM [2] [μA]	SMILES
0.80 ± 0.18	–	COC(=O)C1=C(C)NC(C)=C([N+](=O)[O-])C1c1ccccc1C(F)(F)F (centres unmarked) [BAY K8644]
–	0.15 ± 0.02	CCOC(=O)C1=C(C)NC(C)=C(C(=O)OC)C1c1cccc([N+](=O)[O-])c1 (centres unmarked) [nitrendipine]

— PMC1129089, “Identification and characterization of a novel mammalian Mg^2+ transporter with channel-like properties” (BMC Genomics, 2005)
